{"source": "patent US20220401662A1", "about": "“ACOUSTIC NEBULISER FOR DELIVERY OF ACTIVE AGENTS” (Royal Melbourne Institute of Technology, priority 2020, published 2022)", "assay": "human clinical trial of lung delivery by inhalation of [99mTc]DTPA aerosol from the nebuliser", "format": "in vivo", "conditions": "for Left lung dose / Right lung dose / Total lung dose: inhalation via described nebuliser, unadjusted", "from_the_text": "Nebulisers in accordance with the described embodiments have been subject to human clinical trials to determine efficiency of delivery of active agents to the lungs by inhalation using Technetium-99m DTPA aerosol ([^99mTc]DTPA aerosol).", "data": [{"substance": "Technetium-99m DTPA [[^99mTc]DTPA aerosol]", "values": [{"measurement": "Left lung dose", "setting": "Volunteer 1", "value": 7.15, "unit": "MBq"}, {"measurement": "Right lung dose", "setting": "Volunteer 1", "value": 8.25, "unit": "MBq"}, {"measurement": "Total lung dose", "setting": "Volunteer 1", "value": 15.4, "unit": "MBq"}, {"measurement": "Left lung dose", "setting": "Volunteer 2", "value": 25.2, "unit": "MBq"}, {"measurement": "Right lung dose", "setting": "Volunteer 2", "value": 27.1, "unit": "MBq"}, {"measurement": "Total lung dose", "setting": "Volunteer 2", "value": 52.3, "unit": "MBq"}, {"measurement": "Left lung dose", "setting": "Volunteer 3", "value": 22.2, "unit": "MBq"}, {"measurement": "Right lung dose", "setting": "Volunteer 3", "value": 21.9, "unit": "MBq"}, {"measurement": "Total lung dose", "setting": "Volunteer 3", "value": 44.1, "unit": "MBq"}, {"measurement": "Left lung dose", "setting": "Volunteer 4", "value": 23.3, "unit": "MBq"}, {"measurement": "Right lung dose", "setting": "Volunteer 4", "value": 26.6, "unit": "MBq"}, {"measurement": "Total lung dose", "setting": "Volunteer 4", "value": 49.9, "unit": "MBq"}, {"measurement": "efficiency of delivery to the lungs by inhalation", "setting": "human clinical trials, initial results", "value": "effective delivery of nebulised active agent to the target tissue"}]}]}
